Reference: patent US20240246918A1, “COMPOUNDS AND COMPOSITIONS AS EIF4E INHIBITORS AND THE USES THEREOF” (Ribometrix, Inc., priority 2022, published 2024)
Like-named read-outs stand apart in the source and are kept apart here.

Legend:
human eIF4E protein = molecular target: T1, human eIF4E protein (Homo sapiens, UniProt P06730); assay: Biochemical competitive binding assay (TR-FRET competition, EDA-m7GDP-ATTO-647N probe); details: read-out: hEIF4E TR-FRET IC50
T1 construct: purchased Novus NBP-45314
T1 sequence (P06730 whole entry): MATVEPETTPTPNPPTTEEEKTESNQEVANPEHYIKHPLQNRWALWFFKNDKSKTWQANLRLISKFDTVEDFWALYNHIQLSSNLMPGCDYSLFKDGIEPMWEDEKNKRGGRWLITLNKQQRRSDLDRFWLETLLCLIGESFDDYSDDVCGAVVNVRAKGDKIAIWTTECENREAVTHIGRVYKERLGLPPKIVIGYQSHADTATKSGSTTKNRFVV
How it was run: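 IC50 values come from 4-parameter fits of the normalized 665/620 nm TR-FRET ratio. Compound was first incubated 15 min with 4 nM recombinant His-eIF4E bound to 2.5 nM Eu-anti-His antibody, then 15 min with 5 nM m7GDP-ATTO-647N tracer, in pH 7.5 HEPES buffer with 100 mM KCl, Tween-20 and BSA.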

[1] = test system: cap-dependent translation in Flp-In-293 reporter cells; assay: Cellular cap-dependent translation inhibition assay (dual luciferase assay, DLA; Fluc/Rluc ratio, 24 hours); type: cell-based; details: dual luciferase assay, Flp-In-293 reporter cells, 24 hours, Fluc/Rluc ratio, read-out: DLA 205 IC50
[2] = test system: COLO 205 colorectal tumor cells; assay: Tumor cell viability inhibition assay (CellTiter-Glo 2.0, 72 hours); type: cell-based; details: COLO 205 cell viability
How it was run: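 IC50 derived by 4-parameter fitting after normalizing luminescence to DMSO and max-inhibition wells. Compounds tested as 11 concentrations in 4-fold steps on COLO 205 cells seeded at 1500 per well in RPMI-1640/10% FBS; ATP content measured with CellTiter-Glo 2.0 after 72 h.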

[3] = test system: cyclin D1 protein levels in COLO 205 cells; assay: Cyclin D1 cellular inhibition assay (HTRF, 6 hours); type: cell-based; details: 6 hours of compound treatment, Cyclin D1 protein levels by HTRF, read-out: COLO 205 6 h Cyclin D1 TR-FRET IC50
How it was run: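 COLO 205 cells in RPMI-1640 with 10% FBS treated 6 h with 11-point compound dilutions at 1% DMSO final. Lysates assayed for cyclin D1 by HTRF. Signal normalized to DMSO and maximum-inhibition controls, with IC50 from 4-parameter fit.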

IC50 (human eIF4E protein) [µM] | IC50 ([2]; Homo sapiens, COLO 205, 72 h) [µM] | IC50 [3] [µM] | IC50 [2] [µM] | IC50 ([3]; Homo sapiens, COLO 205, 6 h) [µM] | SMILES | IC50 ([1]; Homo sapiens, Flp-In-293, 24 h) [µM] | IC50 [1] [µM]
< 0.1 | < 5 | < 5 |  |  | Cc1cc(-c2cc(Cl)ccc2OCCn2c(C)nc3c(c2=O)CC(N(C)C)CC3)c2scc(C(=O)O)c2n1 (single isomer, unassigned) [Compound 13] | < 1 | 
< 0.1 |  | > 20 | 5 to 20 |  | Cc1cc(-c2cc(Cl)ccc2OCCn2c(C)nc3c(c2=O)CC(N(C)C)CC3)c2scc(C(=O)O)c2n1 (single isomer, unassigned) [Compound 14] |  | 1 to 5
< 0.1 | < 5 |  |  | < 5 | CO[C@@H]1CCN([C@@H]2CCc3nc(C)n(CCOc4ccc(Cl)cc4-c4cc(C)nc5c(C(=O)O)csc45)c(=O)c3C2)C1 (single isomer, unassigned) [Compound 42] | < 1 | 
< 0.1 |  |  |  | < 5 | Cc1cc(-c2cc(Cl)ccc2OCCn2c(C)nc3c(c2=O)CC(N2CC4COCC4C2)CC3)c2scc(C(=O)O)c2n1 (single isomer, unassigned) [Compound 70] |  | < 1
< 0.1 | < 5 |  |  | < 5 | Cc1cc(-c2cc(Cl)ccc2OCCn2c(C)nc3c(c2=O)CC(N2CCCCC2)CC3)c2scc(C(=O)NS(C)(=O)=O)c2n1 (single isomer, unassigned) [Compound 241] | < 1 | 
< 0.1 | < 5 |  |  | < 5 | Cc1cc(-c2cc(Cl)ccc2OCCn2c(C)nc3c(c2=O)CC(N(C)C2(C4CCC4)CC2)CC3)c2scc(C(=O)O)c2n1 (single isomer, unassigned) [Compound 242] | < 1 | 
< 0.1 |  | 5 to 20 | 5 to 20 |  | Cc1cc(-c2cc(Cl)ccc2OCCn2c(C)nc3c(c2=O)CC(N(C)C2(C4CCC4)CC2)CC3)c2scc(C(=O)O)c2n1 (single isomer, unassigned) [Compound 243] |  | 1 to 5
0.1 to 0.5 | > 20 |  |  | > 20 | Cc1sc2c(-c3cc(Cl)ccc3OCCn3c(C)nc4c(c3=O)CC(N(C)C3CC3)CC4)cn(C)c(=O)c2c1C(=O)O (single isomer, unassigned) [Compound 244] | > 5 | 
< 0.1 |  | 5 to 20 | 5 to 20 |  | Cc1cc(-c2cc(Cl)ccc2OCCn2c(C)nc3c(c2=O)CC(N2CCCCC2)CC3)c2scc(C(=O)NS(C)(=O)=O)c2n1 (single isomer, unassigned) [Compound 245] |  | < 1
< 0.1 | 5 to 20 |  |  | 5 to 20 | Cc1cc(-c2cc(Cl)ccc2OCCn2c(C)nc3c(c2=O)CC(N(CC2CC(F)(F)C2)C2CC2)CC3)c2scc(C(=O)O)c2n1 (single isomer, unassigned) [Compound 257] | < 1 | 
< 0.1 | < 5 |  |  | < 5 | Cc1cc(-c2cc(Cl)ccc2OCCn2c(C)nc3c(c2=O)CC(N(CC2CC(F)(F)C2)C2CC2)CC3)c2scc(C(=O)NS(C)(=O)=O)c2n1 (single isomer, unassigned) [Compound 260] | < 1 | 
< 0.1 | > 20 |  |  | > 20 | Cc1cc(-c2cc(Cl)ccc2OCCn2c(C)nc3c(c2=O)CC(N(C)Cc2cc[nH]n2)CC3)c2scc(C(=O)O)c2n1 (stereo not shown) [Compound 186] |  | 
< 0.1 | < 5 |  |  | 5 to 20 | Cc1cc(-c2cc(Cl)ccc2OCCn2c(C)nc3c(c2=O)CC(N(C)Cc2cncnc2)CC3)c2scc(C(=O)O)c2n1 (stereo not shown) [Compound 187] |  | 
< 0.1 | > 20 |  |  | > 20 | Cc1cc(-c2cc(Cl)ccc2OCCn2c(C)nc3c(c2=O)CC(N(C)Cc2ccnnc2)CC3)c2scc(C(=O)O)c2n1 (stereo not shown) [Compound 188] |  | 
< 0.1 | > 20 |  |  | > 20 | Cc1cc(-c2cc(Cl)ccc2OCCn2c(C)nc3c(c2=O)CC(N(C)Cc2ncc[nH]2)CC3)c2scc(C(=O)O)c2n1 (stereo not shown) [Compound 190] |  | 
< 0.1 | < 5 |  |  | < 5 | Cc1cc(-c2cc(Cl)ccc2OCCn2c(C)nc3c(c2=O)CC(N(C)Cc2ccsc2)CC3)c2scc(C(=O)O)c2n1 (stereo not shown) [Compound 191] |  | 
< 0.1 | < 5 |  |  | < 5 | Cc1cc(-c2cc(Cl)ccc2OCCn2c(C)nc3c(c2=O)CC(N2CCC4(CC2)CC4)CC3)c2scc(C(=O)O)c2n1 (stereo not shown) [Compound 192] |  | 
< 0.1 | > 20 |  |  | > 20 | Cc1cc(-c2cc(Cl)ccc2OCCn2c(C)nc3c(c2=O)CC(N(C)[C@H]2C[C@](C)(O)C2)CC3)c2scc(C(=O)O)c2n1 (stereo partly shown) [Compound 193] |  | 

IC50 (human eIF4E protein) [µM] | IC50 ([2]; Homo sapiens, COLO 205, 72 h) [µM] | IC50 [3] [µM] | IC50 [2] [µM] | IC50 ([3]; Homo sapiens, COLO 205, 6 h) [µM] | SMILES | IC50 ([1]; Homo sapiens, Flp-In-293, 24 h) [µM] | IC50 [1] [µM]
< 0.1 | < 5 |  |  | < 5 | Cc1cc(-c2cc(Cl)ccc2OCCn2c(C)nc3c(c2=O)CC(N2CCC4(C2)CC(F)(F)C4)CC3)c2scc(C(=O)O)c2n1 (stereo not shown) [Compound 194] |  | 
< 0.1 | > 20 |  |  | > 20 | Cc1cc(-c2cc(Cl)ccc2OCCn2c(C)nc3c(c2=O)CC(N2CC4(C2)CC(O)(C(F)(F)F)C4)CC3)c2scc(C(=O)O)c2n1 (stereo not shown) [Compound 195] |  | 
< 0.1 | < 5 |  |  | < 5 | Cc1cc(-c2cc(Cl)ccc2OCCn2c(C)nc3c(c2=O)CC(N(C)Cc2cccnc2)CC3)c2scc(C(=O)O)c2n1 (stereo not shown) [Compound 196] |  | 
< 0.1 | < 5 |  |  | < 5 | Cc1cc(-c2cc(Cl)ccc2OCCn2c(C)nc3c(c2=O)CC(N(C)Cc2cccs2)CC3)c2scc(C(=O)O)c2n1 (stereo not shown) [Compound 197] |  | 
< 0.1 | < 5 |  |  | < 5 | Cc1cc(-c2cc(Cl)ccc2OCCn2c(C)nc3c(c2=O)CC(N(C)Cc2ccnc(C(F)(F)F)c2)CC3)c2scc(C(=O)O)c2n1 (stereo not shown) [Compound 198] |  | 
< 0.1 | < 5 |  |  | < 5 | Cc1cc(-c2cc(Cl)ccc2OCCn2c(C)nc3c(c2=O)CC(N(C)Cc2cnccn2)CC3)c2scc(C(=O)O)c2n1 (stereo not shown) [Compound 199] |  | 
< 0.1 | < 5 |  |  | < 5 | Cc1cc(-c2cc(Cl)ccc2OCCn2c(C)nc3c(c2=O)CC(N(C)Cc2ccccn2)CC3)c2scc(C(=O)O)c2n1 (stereo not shown) [Compound 200] |  | 
< 0.1 | < 5 |  |  | < 5 | Cc1cc(-c2cc(Cl)ccc2OCCn2c(C)nc3c(c2=O)CC(N(C)Cc2ccc(C(F)(F)F)cc2)CC3)c2scc(C(=O)O)c2n1 (stereo not shown) [Compound 201, 7-(5-chloro-2-(2-(2-methyl-6-(methyl(4-(trifluoromethyl)benzyl)amino)-4-oxo-5,6,7,8-tetrahydroquinazolin-3(4H)-yl)ethoxy)phenyl)-5-methylthieno[3,2-b]pyridine-3-carboxylic acid] |  | 
< 0.1 | > 20 |  |  | 5 to 20 | Cc1cc(-c2cc(Cl)ccc2OCCn2c(C)nc3c(c2=O)CC(N(C)Cc2ncccn2)CC3)c2scc(C(=O)O)c2n1 (stereo not shown) [Compound 202] |  | 
< 0.1 | < 5 |  |  | < 5 | Cc1cc(-c2cc(Cl)ccc2OCCn2c(C)nc3c(c2=O)CC(N(C)C2CC4(C2)CC(F)(F)C4)CC3)c2scc(C(=O)O)c2n1 (stereo not shown) [Compound 203] |  | 
< 0.1 | < 5 |  |  | < 5 | Cc1cc(-c2cc(Cl)ccc2OCCn2c(C)nc3c(c2=O)CC(N(C)C[C@H]2C[C@@H](C(F)(F)F)C2)CC3)c2scc(C(=O)O)c2n1 (stereo partly shown) [Compound 204] |  | 
< 0.1 | < 5 |  |  | < 5 | Cc1cc(-c2cc(Cl)ccc2OCCn2c(C)nc3c(c2=O)CC(N(C)CC24CC(C2)C4)CC3)c2scc(C(=O)O)c2n1 (stereo not shown) [Compound 205] |  | 
< 0.1 | > 20 |  |  | > 20 | Cc1cc(-c2cc(Cl)ccc2OCCn2c(C)nc3c(c2=O)CC(N2CCC(OCCO)CC2)CC3)c2scc(C(=O)O)c2n1 (stereo not shown) [Compound 208] |  | 
< 0.1 | > 20 |  |  | > 20 | Cc1cc(-c2cc(Cl)ccc2OCCn2c(C)nc3c(c2=O)CC(N2CCC(C)(O)CC2)CC3)c2scc(C(=O)O)c2n1 (stereo not shown) [Compound 209] |  | 
< 0.1 | 5 to 20 |  |  | 5 to 20 | Cc1cc(-c2cc(Cl)ccc2OCCn2c(C)nc3c(c2=O)CC(N2CCC4(CC2)CC(O)(C(F)(F)F)C4)CC3)c2scc(C(=O)O)c2n1 (stereo not shown) [Compound 212] |  | 
< 0.1 | > 20 |  |  | > 20 | Cc1nc2c(c(=O)n1CCOc1ccc(Cl)cc1-c1ccnc(C(=O)O)c1)CC(N(C)CC1CC(F)(F)C1)CC2 (stereo not shown) [Compound 219] |  | 
< 0.1 | < 5 |  |  | < 5 | Cc1cc(-c2cc(Cl)ccc2OCCn2c(C)nc3c(c2=O)CC(N(C)Cc2cccc(OC(F)(F)F)c2)CC3)c2scc(C(=O)O)c2n1 (stereo not shown) [Compound 222] |  | 
< 0.1 | 5 to 20 |  |  | 5 to 20 | Cc1cc(-c2cc(Cl)ccc2OCCn2c(C)nc3c(c2=O)CC(N(C)C)CO3)c2scc(C(=O)O)c2n1 (stereo not shown) [Compound 230] |  | 
